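These data come from cells grown in 96-well plates and exposed to compound for 48 hours at five concentrations. Definition used: TGI = concentration required for complete inhibition of growth.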
How the values were obtained:
Experiment in all cases: NCI anticancer screen, dose series, 48 h
[1] = test system: OVCAR-4 ovarian
[2] = test system: UACC-62 melanoma
[3] = test system: BT-549 breast
[4] = test system: A498 renal
[5] = test system: NCI-H460 lung
[6] = test system: UO-31 renal
[7] = test system: HCT-116 colon
[8] = test system: IGROV1 ovarian
[9] = test system: SNB-75 CNS
[10] = test system: NCI/ADR-RES ovarian
[11] = test system: RXF 393 renal
[12] = test system: NCI-H23 lung
[13] = test system: COLO 205 colon
[14] = test system: TK-10 renal
[15] = test system: CAKI-1 renal
[16] = test system: SR leukemia
[17] = test system: EKVX NSCLC
[18] = test system: ACHN renal
[19] = test system: K-562 leukemia
[20] = test system: NCI-H226 lung
[21] = test system: SF-268 CNS
[22] = test system: HCC-2998 colon
[23] = test system: SK-MEL-5 melanoma
[24] = test system: MDA-MB-231 breast
[25] = test system: DU-145 prostate
[26] = test system: MOLT-4 leukemia
[27] = test system: SNB-19 CNS
[28] = test system: T-47D breast
[29] = test system: UACC-257 melanoma
[30] = test system: HT29 colon
[31] = test system: HOP-92 NSCLC
[32] = test system: KM12 colon
[33] = test system: SF-539 CNS
[34] = test system: RPMI-8226 leukemia
[35] = test system: NCI-H522 lung
[36] = test system: OVCAR-8 ovarian
[37] = test system: SK-MEL-2 melanoma
[38] = test system: MDA-N
[39] = test system: SN12C renal
[40] = test system: 786-0 renal
[41] = test system: HS 578T breast
[42] = test system: OVCAR-3 ovarian
[43] = test system: LOX IMVI melanoma
[44] = test system: M14 melanoma
[45] = test system: MCF7 breast
[46] = test system: U251 CNS
[47] = test system: MALME-3M melanoma
[48] = test system: PC-3 prostate
[49] = test system: HCT-15 colon
[50] = test system: CCRF-CEM leukemia
[51] = test system: SW-620 colon
[52] = test system: HL-60(TB) leukemia
[53] = test system: SK-MEL-28 melanoma
[54] = test system: OVCAR-5 ovarian
[55] = test system: A549 NSCLC
[56] = test system: HOP-62 NSCLC
[57] = test system: SF-295 CNS
[58] = test system: MDA-MB-435
[59] = test system: SK-OV-3 ovarian

SMILES: O=C(N/N=C\c1cccc2c([N+](=O)[O-])cccc12)Nc1ccccc1
- TGI [1]: 29.2 µM
- TGI [2]: 24.4 µM
- TGI [3]: 29.3 µM
- TGI [4]: 33.4 µM
- TGI [5]: 30.9 µM
- TGI [6]: 26.4 µM
- TGI [7]: 16.1 µM
- TGI [8]: 40.1 µM
- TGI [9]: > 100 µM
- TGI [10]: 32.3 µM
- TGI [11]: 26.3 µM
- TGI [12]: 35.2 µM
- TGI [13]: 50.7 µM
- TGI [14]: 27.3 µM
- TGI [15]: 25.5 µM
- TGI [16]: 43.3 µM
- TGI [17]: 35.1 µM
- TGI [18]: 27.3 µM
- TGI [19]: 43.5 µM
- TGI [20]: 31.2 µM
- TGI [21]: 73 µM
- TGI [22]: 32 µM
- TGI [23]: 33.5 µM
- TGI [24]: 49.4 µM
- TGI [25]: 66.1 µM
- TGI [26]: 41.7 µM
- TGI [27]: 36.5 µM
- TGI [28]: 20.4 µM
- TGI [29]: 44.4 µM
- TGI [30]: 34.7 µM
- TGI [31]: 30.4 µM
- TGI [32]: 36.1 µM
- TGI [33]: 27.3 µM
- TGI [34]: 44 µM
- TGI [35]: 38.4 µM
- TGI [36]: 36.8 µM
- TGI [37]: 18.2 µM
- TGI [38]: 32.8 µM
- TGI [39]: 18.9 µM
- TGI [40]: 35.1 µM
- TGI [41]: 33.5 µM
- TGI [42]: 29.4 µM
- TGI [43]: 25.4 µM
- TGI [44]: 29.5 µM
- TGI [45]: 26.7 µM
- TGI [46]: 24 µM
- TGI [47]: 38 µM
- TGI [48]: 32.7 µM
- TGI [49]: 25.5 µM
- TGI [50]: 33.9 µM
- TGI [51]: 35.8 µM
- TGI [52]: 72.6 µM
- TGI [53]: 31.9 µM
- TGI [54]: 30.5 µM
- TGI [55]: 28.3 µM
- TGI [56]: 36 µM
- TGI [57]: 32.5 µM
- TGI [58]: 25 µM

SMILES: N#C/C(=C1C=C(Br)/C(=N\O)C=C\1Cl)c1cccc2ccccc12
- TGI [1]: 7.6 µM
- TGI [2]: 15.8 µM
- TGI [3]: 22.1 µM
- TGI [4]: 21.5 µM
- TGI [5]: 21.4 µM
- TGI [6]: 24.1 µM
- TGI [7]: 15.6 µM
- TGI [8]: > 100 µM
- TGI [9]: 0.79 µM
- TGI [10]: > 100 µM
- TGI [11]: 4.44 µM
- TGI [12]: 36.3 µM
- TGI [13]: 5.86 µM
- TGI [14]: 24.1 µM
- TGI [15]: 23.4 µM
- TGI [16]: 13.8 µM
- TGI [17]: 23.3 µM
- TGI [18]: 22.9 µM
- TGI [19]: 14.3 µM
- TGI [20]: 6.54 µM
- TGI [21]: 29.3 µM
- TGI [59]: 20.3 µM
- TGI [22]: 17.7 µM
- TGI [23]: 13.4 µM
- TGI [24]: 16.3 µM
- TGI [25]: 12.6 µM
- TGI [26]: 17.6 µM
- TGI [27]: 32.1 µM
- TGI [28]: 12.9 µM
- TGI [29]: 20.5 µM
- TGI [30]: 6.79 µM
- TGI [31]: 21.9 µM
- TGI [32]: 19.4 µM
- TGI [33]: 4.52 µM
- TGI [34]: 32.4 µM
- TGI [35]: 6.47 µM
- TGI [36]: 52.7 µM
- TGI [37]: 8.9 µM
- TGI [38]: 3.28 µM
- TGI [39]: 23.2 µM
- TGI [40]: 13.6 µM
- TGI [41]: 17.5 µM
- TGI [42]: 9.39 µM
- TGI [43]: > 100 µM
- TGI [44]: 11.7 µM
- TGI [45]: 28.6 µM
- TGI [46]: 10.7 µM
- TGI [47]: 21.4 µM
- TGI [48]: 10.9 µM
- TGI [49]: 25.6 µM
- TGI [50]: 13.9 µM
- TGI [51]: 25.5 µM
- TGI [52]: 11.6 µM
- TGI [53]: 21.9 µM
- TGI [54]: 18 µM
- TGI [55]: 26 µM
- TGI [56]: 26.4 µM
- TGI [57]: 12.3 µM
- TGI [58]: 10.4 µM

From PubChem BioAssay (NCI)
